Here are results for three compounds from PMC12217461 (Antimicrobial Agents and Chemotherapy, 2025).

Experiment in all cases: microbe, parasite or virus in culture
What all share (format): cell-based

One assay has as its system Escherichia coli AZ 1677. The settings on record: AZ1677, IMP-59, TEM-1, TAN/XER fixed at 4 µg/mL, XER 8 µg/mL in MEM-XER, read-out: Minimal inhibitory concentration. As for the experimental part: (§1) Most isolates and their respective β-lactamase content were characterized by whole-genome sequencing.
(§2) To assess the inhibitory potency of XER, susceptibility testing was performed by broth microdilution method, determining the minimal inhibitory concentrations (MICs) of different antibiotics or antibiotic plus β-lactamase inhibitor combinations, including cefepime (FEP), imipenem (IPM), meropenem (MEM), and their combinations with XER (FEP-XER, IPM-XER, and MEM-XER). All data obtained with XER-based combinations were compared with data with TAN-based combinations, FEP-TAN, IPM-TAN, and MEM-TAN ([16]). FEP was purchased from Sigma-Aldrich (Saint-Louis, USA), whereas MEM was from HuiChem (Shanghai, China). […] MICs were determined in triplicate in cation-adjusted Mueller-Hinton (MH) broth (Bio-Rad, Marnes-la-Coquette, France) according to the CLSI guidelines ([53]). The results were interpreted according to the decrease in MIC value for the same antibiotic or combination of the corresponding recombinant strain producing the MBL enzyme. […] In a recent phase I clinical evaluation, XER was combined with cefiderocol. However, as this latter β-lactam substrate is known to be poorly hydrolyzed by IMP enzymes, it was not considered for the evaluation of XER inhibitory activity in this study. Instead, carbapenems were used as a substrate to evaluate the β-lactamase IMP activity in the presence or absence of XER and TAN, as it was deemed more specific for the IMP carbapenemase activity.

Assay [1] relates to Citrobacter freundii SMART 958. To be noted: SMART958, IMP-1, OXA-142, TAN/XER fixed at 4 µg/mL, XER 8 µg/mL in MEM-XER, read-out: Minimal inhibitory concentration. The method, then: as §1, §2
Assay [2] relates to Klebsiella pneumoniae Kp 5 IMP. The settings on record: KP5IMP, read-out: Minimal inhibitory concentration. As for the experimental part:
as §1, §2

The test system of assay [3] is Enterobacter xiangfangensis SMART 409. To be noted: Enterobacter hormaechei, SMART409, read-out: Minimal inhibitory concentration. As for the experimental part:
as §1, §2

The test system of assay [4] is Klebsiella pneumoniae SMART 1137. The settings on record: SMART1137, read-out: Minimal inhibitory concentration. The method, then: as §1, §2
Assay [5] has as its system Klebsiella pneumoniae SMART 1134. The settings on record: IMP-34, CTX-M-2, TAN/XER fixed at 4 µg/mL, XER 8 µg/mL in MEM-XER; for MIC: Klebsiella pneumoniae, SMART1134, read-out: Minimal inhibitory concentration. The method, then: as §1, §2
Assay [6] has as its system Pseudomonas aeruginosa PA10. To be noted: IMP-2, TAN/XER fixed at 4 µg/mL, XER 8 µg/mL in MEM-XER, read-out: Minimal inhibitory concentration. As for the experimental part: as §1, §2
For assay [7], the system named is Enterobacter hormaechei subsp. steigerwaltii SMART 1276. To be noted: read-out: Minimal inhibitory concentration. As for the experimental part: as §1, §2
In assay [8] the test system is Pseudomonas aeruginosa PA15. To be noted: IMP-19, TAN/XER fixed at 4 µg/mL, XER 8 µg/mL in MEM-XER, read-out: Minimal inhibitory concentration. As for the experimental part:
as §1, §2

Assay [9] relates to Klebsiella pneumoniae SMART 1133. To be noted: SMART1133, IMP-1, CTX-M-2, TAN/XER fixed at 4 µg/mL, XER 8 µg/mL in MEM-XER, read-out: Minimal inhibitory concentration. The method, then:
as §1, §2

A further assay has as its system C. freundii SMART 315. The settings on record: Citrobacter freundii, SMART315; IMP-4, CTX-M-9; TAN/XER fixed at 4 µg/mL, XER 8 µg/mL in MEM-XER; read-out: Minimal inhibitory concentration. The method, then:
as §1, §2

Assay [10] deals with Escherichia coli E. coli 7 IMP. The settings on record: E.COLI7IMP, read-out: Minimal inhibitory concentration. As for the experimental part: as §1, §2
Assay [11] has as its system Pseudomonas aeruginosa CC02-010. To be noted: CC02010, IMP-7, TAN/XER fixed at 4 µg/mL, XER 8 µg/mL in MEM-XER, read-out: Minimal inhibitory concentration. The method, then:
as §1, §2

The test system of assay [12] is Escherichia coli SMART 640. The settings on record: SMART640, IMP-14, CTX-M-27, OXA-10, TAN/XER fixed at 4 µg/mL, XER 8 µg/mL in MEM-XER, read-out: Minimal inhibitory concentration. As for the experimental part: as §1, §2
The test system of assay [13] is Klebsiella pneumoniae SMART 878. To be noted: for MIC: Klebsiella pneumoniae, SMART878, read-out: Minimal inhibitory concentration. The method, then:
as §1, §2

For assay [14], the system named is Pseudomonas aeruginosa PA14. To be noted: IMP-18, TAN/XER fixed at 4 µg/mL, XER 8 µg/mL in MEM-XER, read-out: Minimal inhibitory concentration. As for the experimental part: as §1, §2
The test system of assay [15] is Pseudomonas aeruginosa PA13. The settings on record: IMP-15, TAN/XER fixed at 4 µg/mL, XER 8 µg/mL in MEM-XER, read-out: Minimal inhibitory concentration. As for the experimental part:
as §1, §2

Assay [16] relates to Enterobacter hormaechei subsp. oharae SMART 1260. The settings on record: read-out: Minimal inhibitory concentration. As for the experimental part: as §1, §2
Assay [17] concerns Escherichia coli SMART 1132. To be noted: SMART1132, IMP-6, CTX-M-2, TAN/XER fixed at 4 µg/mL, XER 8 µg/mL in MEM-XER, read-out: Minimal inhibitory concentration. As for the experimental part:
as §1, §2

Assay [18] concerns Klebsiella pneumoniae SMART 875. The settings on record: SMART875, IMP-26, CTX-M-15, TEM-1 like, TAN/XER fixed at 4 µg/mL, XER 8 µg/mL in MEM-XER, read-out: Minimal inhibitory concentration. As for the experimental part: as §1, §2
Assay [19] relates to Klebsiella pneumoniae SMART 651. To be noted: SMART651, read-out: Minimal inhibitory concentration. The method, then: as §1, §2

As for `C[C@@H](O)[C@H]1C(=O)N2C(C(=O)O)=C(SCCN=CN)C[C@H]12` [IPM, imipenem], the MIC was at most 0.25 µg/mL in the assay with Escherichia coli AZ 1677; 0.5 µg/mL in assay [1]; at most 0.25 µg/mL in assay [2]; at most 0.25 µg/mL in assay [3]; 2 µg/mL in assay [4]; 0.5 µg/mL in assay [5]. The MIC in [6] was 32 µg/mL; in [7] it was 0.5 µg/mL; in assay [8] it was 256 µg/mL; in [9] it was 128 µg/mL; with C. freundii SMART 315, at most 0.25 µg/mL; in assay [10], 0.5 µg/mL. In addition, the MIC is 128 µg/mL in [11]; 0.5 µg/mL in [12]; at most 0.25 µg/mL in assay [13]; 128 µg/mL in [14]; 256 µg/mL in assay [15]; at most 0.25 µg/mL in [16]. Besides, the values for the MIC in assay [17], in assay [18] and in [19] were at most 0.25 µg/mL, at most 0.25 µg/mL and 1 µg/mL, respectively.
Regarding `CO/N=C(\C(=O)N[C@@H]1C(=O)N2C(C(=O)[O-])=C(C[N+]3(C)CCCC3)CS[C@H]12)c1csc(N)n1` [FEP, cefepime], the MIC with Escherichia coli AZ 1677 was 8 µg/mL; in [1], 32 µg/mL; in [2], 256 µg/mL; in assay [3], 4 µg/mL; in assay [4] it was above 256 µg/mL; in [5] it was 256 µg/mL. The MIC in assay [6] was above 256 µg/mL; in assay [7] it was above 256 µg/mL; in assay [8], above 256 µg/mL; in assay [9], above 256 µg/mL; in the assay with C. freundii SMART 315, 16 µg/mL; in assay [10], above 256 µg/mL. Besides, the MIC in [11] is above 256 µg/mL; in assay [12], 128 µg/mL; in [13], 256 µg/mL; in [14], 256 µg/mL; in assay [15] it was 128 µg/mL; in assay [16] it was 32 µg/mL. Further, the MIC in assay [17] worked out at 128 µg/mL; in assay [18] it was 64 µg/mL; in assay [19], 64 µg/mL.
Turning to `C[C@@H](O)[C@H]1C(=O)N2C(C(=O)O)=C(S[C@@H]3CN[C@H](C(=O)N(C)C)C3)[C@H](C)[C@H]12` [MEM, meropenem], the MIC with Escherichia coli AZ 1677 was 0.5 µg/mL; in assay [1], 4 µg/mL; in [2], 0.5 µg/mL; in assay [3], at most 0.125 µg/mL; in assay [4] it was 128 µg/mL; in assay [5], 16 µg/mL. Further, the MIC turned out to be 32 µg/mL in assay [6]; 2 µg/mL in [7]; 64 µg/mL in [8]; 64 µg/mL in assay [9]; 2 µg/mL in the assay on C. freundii SMART 315; 1 µg/mL in assay [10]. Besides, the MIC was 256 µg/mL in assay [11]; 4 µg/mL in assay [12]; 4 µg/mL in [13]; 32 µg/mL in assay [14]; 64 µg/mL in [15]; 1 µg/mL in assay [16]. For the same compound, the figures for the MIC in [17], in assay [18] and in assay [19] were 4 µg/mL, 0.125 µg/mL and 8 µg/mL, respectively. Besides, the Minimal inhibitory concentration was 8 µg/mL in [5] and 1 µg/mL in [13] (IMP-26, CTX-M-15, OXA-1, TEM-1 like, TAN/XER fixed at 4 µg/mL, XER 8 µg/mL in MEM-XER).
